According to ChEMBL document CHEMBL2029278 (Bioorg Med Chem Lett, 2012):
The source made the active and inactive calls. No cut-off for these calls is given here.

Assays:
Neuraminidase [1] = biological target: T1, Neuraminidase (Influenza A virus, UniProt B4URF0); experiment: Inhibition of Influenza A virus H1N1 neuraminidase using 4-MU-NANA as substrate by fluorescence assay
Neuraminidase [2] = biological target: T1, Neuraminidase; experiment: Inhibition of Influenza A virus H9N2 neuraminidase using 4-MU-NANA as substrate by fluorescence assay
Neuraminidase [3] = biological target: T1, Neuraminidase; experiment: Inhibition of wild type H1N1 swine influenza virus neuraminidase using 4-MU-NANA as substrate by fluorescence assay
Influenza A virus = experiment: Antiviral activity against Influenza A virus PR/8/34 H1N1 infected in dog MDCK cells assessed as reduction in virus-induced cytopathic effect at 5 ug/mL; assay type: functional, organism-based; settings: A/Puerto Rico/8/1934(H1N1)

T1 sequence (B4URF0 whole entry): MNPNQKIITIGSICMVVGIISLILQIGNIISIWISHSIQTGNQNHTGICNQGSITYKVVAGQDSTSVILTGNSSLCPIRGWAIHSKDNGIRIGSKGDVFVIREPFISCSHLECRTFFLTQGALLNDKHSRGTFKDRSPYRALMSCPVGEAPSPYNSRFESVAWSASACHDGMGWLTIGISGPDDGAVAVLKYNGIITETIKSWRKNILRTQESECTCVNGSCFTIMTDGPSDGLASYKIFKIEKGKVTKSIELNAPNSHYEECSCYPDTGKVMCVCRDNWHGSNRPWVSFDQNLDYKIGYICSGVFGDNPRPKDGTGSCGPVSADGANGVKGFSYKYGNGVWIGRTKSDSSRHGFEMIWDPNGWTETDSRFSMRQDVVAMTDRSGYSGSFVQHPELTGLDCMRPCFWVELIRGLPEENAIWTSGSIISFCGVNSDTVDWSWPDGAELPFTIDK

SMILES | IC50 (Neuraminidase [1]) | IC50 (Neuraminidase [2]) | IC50 (Neuraminidase [3]) | Activity (Influenza A virus)
COc1c(O)cc2c(=O)c3ccccc3oc2c1OC | > 367 µM | > 367 µM | – | –
O=c1c2cccc(O)c2oc2cc(O)c(O)c(O)c12 | 103 µM | 76.1 µM | 52.6 µM | Active
O=c1c2ccccc2oc2cc(O)cc(O)c12 | 102 µM | 67.7 µM | 48.9 µM | Active
COc1cccc2oc3ccc(O)cc3c(=O)c12 | > 413 µM | > 413 µM | – | –
COc1cc(O)c2oc3ccccc3c(=O)c2c1OC | > 367 µM | > 367 µM | – | –
O=c1c2cc(O)ccc2oc2cc(O)cc(O)c12 | 110 µM | 101 µM | 54.9 µM | Active
COc1ccc(O)c2c(=O)c3cc(O)ccc3oc12 | 110 µM | 99.1 µM | 36.1 µM | Active
COc1c2c(cc3c(=O)c4ccccc4oc13)OCO2 | > 370 µM | > 370 µM | – | –
COc1c(O)cc2oc3cc(O)ccc3c(=O)c2c1OC | > 347 µM | > 347 µM | – | –
O=c1c2cc(O)ccc2oc2cccc(O)c12 | 103 µM | 98.4 µM | 50.6 µM | Active
